Patent US11390604B2 (Hoffmann-La Roche Inc., priority 2019, dated 2022)
Counter-ions that a name gives are not always drawn.

tested on: Acinetobacter baumannii ATCC 17961; experiment: Antimicrobial susceptibility testing: 90% growth inhibitory concentration (IC90) determination; type: cell-based; settings: ATCC17961, Acinetobacter baumannii ATCC 17961, Iso-Sensitest broth, read-out: ATCC 17961 IC90
Description: Antimicrobial Susceptibility Testing:
90% Growth Inhibitory Concentration (IC90) Determination
The in vitro antimicrobial activity of the compounds was determined according to the following procedure:
The assay used a 10-points Iso-Sensitest broth medium to measure quantitatively the in vitro activity of the compounds against Acinetobacter baumannii ATCC 17961.
Stock compounds in DMSO were serially twofold diluted (e.g. range from 50 to 0.097 μM final concentration) in 384 wells microtiter plates and inoculated with 49 μl the bacterial suspension in Iso-Sensitest medium to have a final cell concentration of ˜5×10^(5) CFU/ml in a final volume/well of 50 ul/well. Microtiter plates were incubated at 35±2° C.
Bacterial cell growth was determined with the measurement of optical density at X=600 nm each 20 minutes over a time course of 16 h. Growth inhibition was calculated during the logarithmic growth of the bacterial cells with determination of the concentration inhibiting 50% (IC50) and 90% (IC90) of the growth.
Table 1 provides the 90% growth inhibitory concentrations (IC90) in micromoles per liter of the compounds of present disclosure obtained against the strain Acinetobacter baumannii ATCC 17961.

SMILES	IC90 [nM]
C#CCn1cc(-c2cnc(C(=O)Nc3ccc(C(=O)N4CCN(C(=O)C5CCN(C)CC5)CC4)c(Cl)c3)n2C)c(C(F)(F)F)n1 [Example 13, N-(3-chloro-4-(4-(1-methylpiperidine-4-carbonyl)piperazine-1-carbonyl)phenyl)-1-methyl-5-(1-(prop-2-yn-1-yl)-3-(trifluoromethyl)-1H-pyrazol-4-yl)-1H-imidazole-2-carboxamide]	335
CN1CCC(C(=O)N2CCN(C(=O)c3ccc(NC(=O)c4ncc(-c5c[nH]nc5C(F)(F)F)n4C)cc3Cl)CC2)CC1 [Example 14, N-[3-chloro-4-[4-(1-methylpiperidine-4-carbonyl)piperazine-1-carbonyl]phenyl]-1-methyl-5-[3-(trifluoromethyl)-1H-pyrazol-4-yl]imidazole-2-carboxamide]	516
CN1CCC(C(=O)N2CCN(C(=O)c3ccc(NC(=O)c4ncc(-c5cn(CC#N)nc5C(F)(F)F)n4C)cc3Cl)CC2)CC1 [Example 15, N-(3-chloro-4-(4-(1-methylpiperidine-4-carbonyl)piperazine-1-carbonyl)phenyl)-5-(1-(cyanomethyl)-3-(trifluoromethyl)-1H-pyrazol-4-yl)-1-methyl-1H-imidazole-2-carboxamide]	558
Cn1c(-c2cn(CC#CCN)nc2C(F)(F)F)cnc1C(=O)Nc1ccc(C(=O)N2CCN(C(=O)C3CCNCC3)CC2)c(Cl)c1 [Example 17, 5-(1-(4-aminobut-2-yn-1-yl)-3-(trifluoromethyl)-1H-pyrazol-4-yl)-N-(3-chloro-4-(4-(piperidine-4-carbonyl)piperazine-1-carbonyl)phenyl)-1-methyl-1H-imidazole-2-carboxamide dihydrochloride]	607
CCC#CCn1cc(-c2cnc(C(=O)Nc3ccc(C(=O)N4CCN(C(=O)C5CCNCC5)CC4)c(Cl)c3)n2C)c(C(F)(F)F)n1 [Example 19, N-(3-chloro-4-(4-(piperidine-4-carbonyl)piperazine-1-carbonyl)phenyl)-1-methyl-5-(1-(pent-2-yn-1-yl)-3-(trifluoromethyl)-1H-pyrazol-4-yl)-1H-imidazole-2-carboxamide hydrochloride]	172
CC(C(N)=O)n1cc(-c2cnc(C(=O)Nc3ccc(C(=O)N4CCN(C(=O)C5CCNCC5)CC4)c(Cl)c3)n2C)c(C(F)(F)F)n1 (stereo not drawn) [Example 22, 5-(1-(1-amino-1-oxopropan-2-yl)-3-(trifluoromethyl)-1H-pyrazol-4-yl)-N-(3-chloro-4-(4-(piperidine-4-carbonyl)piperazine-1-carbonyl)phenyl)-1-methyl-1H-imidazole-2-carboxamide formate]	1290
Cn1c(-c2cn(CCn3cccn3)nc2C(F)(F)F)cnc1C(=O)Nc1ccc(C(=O)N2CCN(C(=O)C3CCNCC3)CC2)c(Cl)c1 [Example 23, 5-(1-(2-(1H-pyrazol-1-yl)ethyl)-3-(trifluoromethyl)-1H-pyrazol-4-yl)-N-(3-chloro-4-(4-(piperidine-4-carbonyl)piperazine-1-carbonyl)phenyl)-1-methyl-1H-imidazole-2-carboxamide formate]	1420
CC(C)NC(=O)Cn1cc(-c2cnc(C(=O)Nc3ccc(C(=O)N4CCN(C(=O)C5CCNCC5)CC4)c(Cl)c3)n2C)c(C(F)(F)F)n1 [Example 24, N-(3-chloro-4-(4-(piperidine-4-carbonyl)piperazine-1-carbonyl)phenyl)-5-(1-(2-(isopropylamino)-2-oxoethyl)-3-(trifluoromethyl)-1H-pyrazol-4-yl)-1-methyl-1H-imidazole-2-carboxamide formate]	981
Cn1c(-c2cn(C3CCN(C4CC4)C3=O)nc2C(F)(F)F)cnc1C(=O)Nc1ccc(C(=O)N2CCN(C(=O)C3CCNCC3)CC2)c(Cl)c1 (stereo not drawn) [Example 26, N-(3-chloro-4-(4-(piperidine-4-carbonyl)piperazine-1-carbonyl)phenyl)-5-(1-(1-cyclopropyl-2-oxopyrrolidin-3-yl)-3-(trifluoromethyl)-1H-pyrazol-4-yl)-1-methyl-1H-imidazole-2-carboxamide formate]	1910
CNC(=O)Cn1cc(-c2cnc(C(=O)Nc3ccc(C(=O)N4CCN(C(=O)C5CCNCC5)CC4)c(Cl)c3)n2C)c(C(F)(F)F)n1 [Example 28, N-(3-chloro-4-(4-(piperidine-4-carbonyl)piperazine-l-carbonyl)phenyl)-1-methyl-5-(1-(2-(methylamino)-2-oxoethyl)-3-(trifluoromethyl)-1H-pyrazol-4-yl)-1H-imidazole-2-carboxamide formate]	1490
Cc1cc(NC(=O)c2ncc(-c3c[nH]nc3C(F)(F)F)n2C)ccc1C(=O)N1CCN(C(=O)C2CCNCC2)CC1 [Example 29, 1-Methyl-N-(3-methyl-4-(4-(piperidine-4-carbonyl)piperazine-1-carbonyl)phenyl)-5-(3-(trifluoromethyl)-1H-pyrazol-4-yl)-1H-imidazole-2-carboxamide dihydrochloride]	1450

The next lines start with the values.

IC90 [nM]	SMILES
700	Cn1c(-c2cn(CC(F)F)nc2C(F)(F)F)cnc1C(=O)Nc1ccc(C(=O)N2CCN(C(=O)C3CCNCC3)CC2)c(Cl)c1 [Example 12, N-(3-chloro-4-(4-(piperidine-4-carbonyl)piperazine-1-carbonyl)phenyl)-5-(1-(2,2-difluoroethyl)-3-(trifluoromethyl)-1H-pyrazol-4-yl)-1-methyl-1H-imidazole-2-carboxamide hydrochloride]
1360	Cn1c(-c2cn(C3CS(=O)(=O)C3)nc2C(F)(F)F)cnc1C(=O)Nc1ccc(C(=O)N2CCN(C(=O)C3CCNCC3)CC2)c(Cl)c1 [Example 16, N-(3-chloro-4-(4-(piperidine-4-carbonyl)piperazine-1-carbonyl)phenyl)-5-(1-(1,1-dioxidothietan-3-yl)-3-(trifluoromethyl)-1H-pyrazol-4-yl)-1-methyl-1H-imidazole-2-carboxamide]
419	COCC#CCn1cc(-c2cnc(C(=O)Nc3ccc(C(=O)N4CCN(C(=O)C5CCNCC5)CC4)c(Cl)c3)n2C)c(C(F)(F)F)n1 [Example 18, N-(3-chloro-4-(4-(piperidine-4-carbonyl)piperazine-1-carbonyl)phenyl)-5-(1-(4-methoxybut-2-yn-1-yl)-3-(trifluoromethyl)-1H-pyrazol-4-yl)-1-methyl-1H-imidazole-2-carboxamide hydrochloride]
1660	Cn1c(-c2cn(CC(N)=O)nc2C(F)(F)F)cnc1C(=O)Nc1ccc(C(=O)N2CCN(C(=O)C3CCNCC3)CC2)c(Cl)c1 [Example 20, 5-(1-(2-amino-2-oxoethyl)-3-(trifluoromethyl)-1H-pyrazol-4-yl)-N-(3-chloro-4-(4-(piperidine-4-carbonyl)piperazine-1-carbonyl)phenyl)-1-methyl-1H-imidazole-2-carboxamide formate]
1870	CN(C)C(=O)Cn1cc(-c2cnc(C(=O)Nc3ccc(C(=O)N4CCN(C(=O)C5CCNCC5)CC4)c(Cl)c3)n2C)c(C(F)(F)F)n1 [Example 21, N-(3-chloro-4-(4-(piperidine-4-carbonyl)piperazine-1-carbonyl)phenyl)-5-(1-(2-(dimethylamino)-2-oxoethyl)-3-(trifluoromethyl)-1H-pyrazol-4-yl)-1-methyl-1H-imidazole-2-carboxamide formate]
2010	COCCOCCn1cc(-c2cnc(C(=O)Nc3ccc(C(=O)N4CCN(C(=O)C5CCNCC5)CC4)c(Cl)c3)n2C)c(C(F)(F)F)n1 [Example 25, N-(3-chloro-4-(4-(piperidine-4-carbonyl)piperazine-1-carbonyl)phenyl)-5-(1-(2-(2-methoxyethoxy)ethyl)-3-(trifluoromethyl)-1H-pyrazol-4-yl)-1-methyl-1H-imidazole-2-carboxamide]
531	CC(C)Cn1cc(-c2cnc(C(=O)Nc3ccc(C(=O)N4CCN(C(=O)C5CCNCC5)CC4)c(Cl)c3)n2C)c(C(F)(F)F)n1 [Example 27, N-(3-chloro-4-(4-(piperidine-4-carbonyl)piperazine-1-carbonyl)phenyl)-5-(1-isobutyl-3-(trifluoromethyl)-1H-pyrazol-4-yl)-1-methyl-1H-imidazole-2-carboxamide]
867	Cc1cc(NC(=O)c2ncc(-c3cn(CC#N)nc3C(F)(F)F)n2C)ccc1C(=O)N1CCN(C(=O)C2CCNCC2)CC1 [Example 30, 5-(1-(cyanomethyl)-3-(trifluoromethyl)-1H-pyrazol-4-yl)-1-methyl-N-(3-methyl-4-(4-(piperidine-4-carbonyl)piperazine-1-carbonyl)phenyl)-1H-imidazole-2-carboxamide]
962	C#CCn1cc(-c2cnc(C(=O)Nc3ccc(C(=O)NC[C@@H]4CCNC4)c(Cl)c3)n2C)c(C(F)(F)F)n1 [Example 31, (R)—N-(3-Chloro-4-((pyrrolidin-3-ylmethyl)carbamoyl)phenyl)-1-methyl-5-(1-(prop-2-yn-1-yl)-3-(trifluoromethyl)-1H-pyrazol-4-yl)-1H-imidazole-2-carboxamide hydrochloride]
896	C#CCn1cc(-c2cnc(C(=O)Nc3ccc(C(=O)NC[C@H]4CCNC4)c(Cl)c3)n2C)c(C(F)(F)F)n1 [Example 32, (S)-N-(3-chloro-4-((pyrrolidin-3-ylmethyl)carbamoyl)phenyl)-1-methyl-5-(1-(prop-2-yn-1-yl)-3-(trifluoromethyl)-1H-pyrazol-4-yl)-1H-imidazole-2-carboxamide hydrochloride]
